These results are taken from paper PMC6920875, “Dithiocarbamate as a Valuable Scaffold for the Inhibition of Metallo-β-Lactmases” (Biomolecules, 2019).

For one data set, the target named is T1, L1 (Stenotrophomonas maltophilia, UniProt P52700).
T1 construct: made in house; host or cells: E. coli BL21 (DE3), plasmid pET-26b-L1
Kind of data set: biochemical. As to conditions: read-out: inhibition against L1. The procedure:
(§1) The dithiocarbamates, MβLs and substrates samples were prepared with 30 mM Tris, pH 7.0. […] Enzymes and inhibitors were pre-incubated for 5 min before adding substrate. […] The IC50 values were nonlinearly fitted by plotting the average percentage inhibition against inhibitor concentration. The inhibition modes of DC1 to ImiS, NDM-1 and L1 were assayed by generating Lineweaver–Burk plots, and Ki values were obtained by fitting initial velocity versus substrate concentration at each inhibitor concentration, using SigmaPlot 12.0 (Systat Software Inc., San Jose, CA, USA).
(§2) To evaluate the inhibitory activity of the dithiocarbamates, we over-expressed and purified MβLs NDM-1, VIM-2 and IMP-1 (B1), ImiS (B2), and L1 (B3) from three subclasses as previously reported. The inhibition experiments were performed with an Agilent UV8453 spectrometer. […] The concentrations of inhibitors were varied between 0 and 200 μM. The initial reaction rates were determined in the absence and presence of inhibitors in triplicate, and the generated average values were recorded.

In the next data set the target is T2, NDM-1 (Klebsiella pneumoniae, UniProt C7C422).
T2 construct: made in house; host or cells: E. coli BL21 (DE3), plasmid pET26b-NDM-1
The data set can be described thus: biochemical. As to conditions: read-out: inhibition against NDM-1. The method, then: as §1, §2

A further data set has as its target T3, IMP-1 (Serratia marcescens, UniProt P52699).
T3 construct: made in house; host or cells: E. coli BL21 (DE3), plasmid pET26b-IMP-1
Kind of data set: biochemical. As to conditions: read-out: inhibition against IMP-1. The method, then:
as §1, §2

Another data set has as its target T4, ImiS (Aeromonas veronii, UniProt O31272).
T4 construct: made in house; host or cells: E. coli BL21 (DE3), plasmid pET-26b-ImiS
The data set can be described thus: Inhibition kinetics, Lineweaver–Burk plots. Type of data set: biochemical, Aeromonas veronii bv. sobria. The method, then: as §1
To further identify the inhibition mode of the DCs against MβLs, we performed inhibition kinetics of NDM-1, ImiS and L1 by DC1, at different concentrations, with different substrate concentrations. […] Enzyme and inhibitors were pre-incubated for 5 min before starting the kinetic assays. All experimental hydrolytic rates of substrates were determined in triplicate. The inhibition mode of dithiocarbamates on MβLs was identified by generating Lineweaver–Burk plots, and Ki values were gained by fitting the initial velocity versus substrate concentration at each inhibitor concentration, using SigmaPlot 12.0.

T4 sequence (O31272 28-255): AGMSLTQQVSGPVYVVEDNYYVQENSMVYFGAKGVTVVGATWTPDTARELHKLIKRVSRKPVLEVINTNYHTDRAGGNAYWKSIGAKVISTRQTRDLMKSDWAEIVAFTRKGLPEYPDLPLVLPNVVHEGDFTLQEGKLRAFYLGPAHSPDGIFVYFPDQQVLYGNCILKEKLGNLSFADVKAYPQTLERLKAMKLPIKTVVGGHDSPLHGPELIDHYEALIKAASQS
T3 sequence (P52699 19-246 limits assumed): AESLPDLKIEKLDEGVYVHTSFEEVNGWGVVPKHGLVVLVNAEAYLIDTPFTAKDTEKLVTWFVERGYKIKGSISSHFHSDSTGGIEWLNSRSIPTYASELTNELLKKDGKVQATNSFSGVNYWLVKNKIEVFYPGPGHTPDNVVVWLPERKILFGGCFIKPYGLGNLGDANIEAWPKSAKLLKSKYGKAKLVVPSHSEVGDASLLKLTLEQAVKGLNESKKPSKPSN
T1 sequence (P52700 34-290): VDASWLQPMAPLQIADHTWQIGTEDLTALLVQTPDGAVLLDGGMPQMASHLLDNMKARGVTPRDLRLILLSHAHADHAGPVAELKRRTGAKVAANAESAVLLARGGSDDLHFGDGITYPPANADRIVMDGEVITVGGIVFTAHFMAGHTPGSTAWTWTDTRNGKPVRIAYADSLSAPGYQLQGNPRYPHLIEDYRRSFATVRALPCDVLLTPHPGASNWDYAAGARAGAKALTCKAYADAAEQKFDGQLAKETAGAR
T2 sequence (C7C422 29-270 limits assumed): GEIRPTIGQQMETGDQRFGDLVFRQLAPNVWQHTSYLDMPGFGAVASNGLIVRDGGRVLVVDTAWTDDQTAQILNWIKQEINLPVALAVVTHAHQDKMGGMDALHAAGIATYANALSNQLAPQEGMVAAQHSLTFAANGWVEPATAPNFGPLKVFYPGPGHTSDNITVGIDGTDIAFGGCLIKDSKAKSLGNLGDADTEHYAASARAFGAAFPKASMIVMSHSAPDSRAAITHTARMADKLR

The compound `O=C(NNC(=S)[S][K])c1ccccc1O` [DC1] yielded a melting point of 264 to 265 °C. Moreover, at L1, the inhibition at 8 µM was > 90%. Further, the inhibition at 20 µM at NDM-1 was > 90%. In addition, the inhibition at 10 µM at IMP-1 was > 90%. The “inhibition mode against ImiS” value on ImiS (Lineweaver–Burk plots) was “partially mixed inhibition”. Moreover, the Ki at ImiS (read-out: Ki against ImiS, imipenem 20-120 µM, inhibitor 0-20 μM, SigmaPlot fit) was determined as 140 nM.
